Assays:
[1] = Single-dose pharmacokinetics in mice; type: in vivo; settings: mouse, plasma
Experimental: To characterize the pharmacokinetic behavior of RNB-61, studies in rodents were conducted at the in vivo facility of F. Hoffmann-La Roche Ltd. (Basel, Switzerland). The plasma-concentration time profile was studied in rodents after single-dose RNB-61 administration by oral gavage (p.o. microsuspension excipients 7.5% gelatin/0.62% NaCl) and intravenous bolus injection (i.v. solution, excipients NMP:NaCl (30:70)). Three groups of male Wistar rats (n = 2 per group) were administered RNB-61 either at 1 mg kg^–1 i.v., 3 mg kg^–1 p.o., or 26 mg kg^–1 p.o. Plasma samples were drawn at 0.083, 0.25, 0.5, 1, 2, 4, 8, and 24 postdose in the i.v. group and at 0.25, 0.5, 0.75, 1.5, 3, 5, 8, and 24 h postdose in the p.o. groups. The samples were analyzed for RNB-61 concentration by LC/MS-MS. For the LC/MS-MS analysis, and the samples were prepared by adding 100 uL to 400 uL ACN with ISTD (100 ng/mL Bosantan in ACN/MeOH 1/1), stirring, and centrifuging (4000 rpm, 65’). 100 uL of the supernatant were pipetted and diluted with 400 μL H2O at pH 3. The analytes were separated on a Restek C18 column (5 μm, 1.0 × 3 mm). The mobile phase consisted of water containing 0.1% HCOOH as solvent A and ACN containing 0.1% HCOOH as solvent B. The gradient curve starting with 5% B was changed to 90% B between 0.4 and 0.6 min and further increased to 95% B between 0.6 and 1.2 min. This was maintained until 1.4 min and then reduced and kept at 5% B between 1.45 and 2.0 min. The mass spectrometer was operated in the positive mode. All LC-MS/MS was done using the Agilent RapidFire Analyzer software (version 4.3). The pharmacokinetic parameters were estimated by noncompartmental analysis in the Certara WinNonlin software (version 5.3). A similar study design was run in mice with three groups receiving 2 mg kg^–1 i.v., 4 mg kg^–1 p.o., or 26 mg kg^–1 p.o., and plasma sampling occurring in a composite profile (n = 2 for each time point) up to 7 or 24 h postdose. Male C57/BL6 mice (n = 5 per group) were used to study the influence of P-gp efflux on brain penetration. Two groups of mice were administered RNB-61 by i.v. bolus injection at 1 mg kg^–1 (2 groups). In order to block P-gp activity, an i.v. bolus of 5 mg kg^–1 tariquidar[46] was injected into one group 30 min prior to RNB-61. Plasma was collected at 0.083, 0.25, 0.5, 2, 4, and 7 h postdose in a composite profile. Brain, CSF, and vitreous body were collected at terminal time points 0.5, 2, 4, and 7 h postdose.

hCB1R [2] = target: T1, hCB1R (Homo sapiens, UniProt P21554); experiment: cell-based; settings: Table 1; mean ± SD; read-out: EC50 hCB1R (cAMP assay)
T1 sequence (P21554 whole entry): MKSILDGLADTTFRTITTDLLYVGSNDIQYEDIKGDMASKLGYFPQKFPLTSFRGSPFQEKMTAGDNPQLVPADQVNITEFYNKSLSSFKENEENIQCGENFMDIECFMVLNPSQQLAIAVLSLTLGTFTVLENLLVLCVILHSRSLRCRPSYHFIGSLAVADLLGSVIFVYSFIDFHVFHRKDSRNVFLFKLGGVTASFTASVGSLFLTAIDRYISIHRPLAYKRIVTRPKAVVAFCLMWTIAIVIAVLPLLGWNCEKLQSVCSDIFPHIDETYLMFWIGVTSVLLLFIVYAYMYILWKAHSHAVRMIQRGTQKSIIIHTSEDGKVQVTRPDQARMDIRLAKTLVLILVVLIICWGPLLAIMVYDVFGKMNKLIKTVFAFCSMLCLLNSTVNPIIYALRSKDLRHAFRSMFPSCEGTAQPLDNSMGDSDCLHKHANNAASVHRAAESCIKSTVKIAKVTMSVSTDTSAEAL

canine CB2R = canine CB2R (Canis lupus familiaris, UniProt E2RKA3); experiment: cAMP assay in CHO cells; type: cell-based; settings: mean ± SD; read-out: EC50 cAMP assay, dog CB2R
canine CB2R, sequence (E2RKA3 1-360): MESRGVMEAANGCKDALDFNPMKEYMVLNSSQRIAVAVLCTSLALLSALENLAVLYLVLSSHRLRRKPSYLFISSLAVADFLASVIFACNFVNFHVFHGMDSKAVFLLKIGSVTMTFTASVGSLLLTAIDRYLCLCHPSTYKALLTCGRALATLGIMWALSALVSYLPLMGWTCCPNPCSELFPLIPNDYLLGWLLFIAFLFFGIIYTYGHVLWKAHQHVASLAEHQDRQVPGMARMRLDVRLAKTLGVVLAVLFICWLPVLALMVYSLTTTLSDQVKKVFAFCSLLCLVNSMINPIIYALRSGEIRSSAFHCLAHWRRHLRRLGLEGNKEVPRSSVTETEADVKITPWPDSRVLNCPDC

hCB1R [3] = target: T1, hCB1R; experiment: Competition binding assay with [3H]-CP55940, HEK cell membranes; settings: read-out: Ki hCB1R (binding assay); [3H]-CP55940 competition; mean ± SD
Experimental: (§1) Competition and saturation binding assays were performed using the radiolabeled CB1R/CB2R agonist [^3H]-CP55940 (PerkinElmer).
(§2) Binding reactions were terminated by vacuum filtration onto 0.5% polyethylenimine presoaked GF/B filter plates (Packard) using a Filtermate cell harvester followed by 6 brief washes with 0.3 mL/well of ice-cold wash buffer. Wash buffer comprising 50 mmol L^–1 Tris- HCl, 5 mmol L^–1 MgCl2, 2.5 mmol L^–1 EDTA, and 0.5% fatty acid-free BSA, pH 7.4. Plates were dried at 50 °C for 1 h and liquid scintillation counting was used to determine levels of bound radiolabel. IC50 values and Hill slopes were determined with a 4-parameter logistic model using ActivityBase (ID Business Solution, Guilford, UK) and pKi values were determined using the Cheng–Prusoff equation as shown below: [drawing 1] where S indicates the concentration of the substrate and Km depicts the affinity constant of the substrate.

human CB2R = human CB2R (Homo sapiens, UniProt P34972); experiment: as above
human CB2R, sequence (P34972 whole entry): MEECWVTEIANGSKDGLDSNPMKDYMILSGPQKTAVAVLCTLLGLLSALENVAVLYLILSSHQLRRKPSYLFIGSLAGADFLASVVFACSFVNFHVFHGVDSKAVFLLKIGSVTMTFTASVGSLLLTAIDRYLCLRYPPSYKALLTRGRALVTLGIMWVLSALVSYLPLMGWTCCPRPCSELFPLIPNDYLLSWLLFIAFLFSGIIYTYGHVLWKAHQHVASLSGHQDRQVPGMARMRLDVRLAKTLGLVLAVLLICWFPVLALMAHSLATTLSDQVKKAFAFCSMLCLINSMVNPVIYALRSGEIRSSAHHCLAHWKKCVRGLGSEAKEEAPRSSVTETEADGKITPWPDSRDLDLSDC
Experimental: as §1, §2

mouse CB2R = target: T2, mouse CB2R (Mus musculus, UniProt P47936); experiment: cAMP assay in CHO cells; type: cell-based; settings: mean ± SD
T2 construct: expressed in transfected cells; host or cells: CHO cells
T2 sequence (P47936 whole entry): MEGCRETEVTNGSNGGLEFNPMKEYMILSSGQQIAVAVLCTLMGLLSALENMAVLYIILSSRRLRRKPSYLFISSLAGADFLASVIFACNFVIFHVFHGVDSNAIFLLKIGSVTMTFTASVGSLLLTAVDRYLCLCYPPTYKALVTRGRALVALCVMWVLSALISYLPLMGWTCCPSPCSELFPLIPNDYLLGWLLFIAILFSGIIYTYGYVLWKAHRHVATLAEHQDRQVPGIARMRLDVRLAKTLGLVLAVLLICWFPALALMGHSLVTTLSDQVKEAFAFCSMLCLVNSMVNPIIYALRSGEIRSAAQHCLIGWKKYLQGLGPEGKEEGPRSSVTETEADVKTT

80 additional receptors = experiment: CEREP off-target binding screen
GSH adduct formation = type: in vitro ADME, rat
Experimental: Cytochrome P450 (CYP) assays were conducted as previously described.[41] In brief, RNB-61 was incubated at a range of concentrations with the following components: pooled human liver microsomes, CYP probe substrate around the reported Km, and NADPH with a final concentration: 1 mM in 100 mM sodium phosphate buffer (pH 7.4). The conditions were optimized for a linear metabolic rate for the probe substrate reactions. The analysis of the samples was carried out by LC-MS/MS. The assays generated two endpoints: IC50 (μM) and percent inhibition at the highest acceptable test concentration (typically 50 μM; lower if the highest concentration data are rejected due to insolubility). […] (GSH) adduct formation data was assessed as reported in a previous study.[42] Briefly, RNB-61 was incubated with human liver microsomes to form reactive metabolites, and glutathione was added as a nucleophile to convert the reactive metabolites into stable conjugates that could be analyzed by MS.

Cn1c(C(C)(C)C)cc(=NC(=O)c2cc(C(F)(F)F)ccc2OCC(C)(C)O)n1CC1CCC1 [RNB-61]
AUC(0-inf) ([1]; iv, 2 mg kg^–1 i.v.): 8630 ng·h/mL | Cmax ([1]; iv, 2 mg kg^–1 i.v.): 1170 ng/mL | Tmax ([1]; iv, 2 mg kg^–1 i.v.): 0.25 h | clearance ([1]; iv, 2 mg kg^–1 i.v.): 3.9 mL/min/kg | half-life ([1]; iv, 2 mg kg^–1 i.v.): 7.7 h | Vd ([1]; iv, 2 mg kg^–1 i.v., read-out: Vss): 2.4 L/kg | AUC(0-inf) ([1]; po, 4 mg kg^–1 p.o.): 9300 ng·h/mL | Cmax ([1]; po, 4 mg kg^–1 p.o.): 843 ng/mL | Tmax ([1]; po, 4 mg kg^–1 p.o.): 2 h | bioavailability ([1]; po, 4 mg kg^–1 p.o.): 54% | half-life ([1]; po, 4 mg kg^–1 p.o.): 6.4 h | AUC(0-inf) ([1]; po, 26 mg kg^–1 p.o.): 47300 ng·h/mL | Cmax ([1]; po, 26 mg kg^–1 p.o.): 4370 ng/mL | Tmax ([1]; po, 26 mg kg^–1 p.o.): 2 h | bioavailability ([1]; po, 26 mg kg^–1 p.o.): 42% | half-life ([1]; po, 26 mg kg^–1 p.o.): 4.3 h | EC50 (hCB1R [2]): > 10000 nM | EC50 (canine CB2R): 1.86 ± 1.58 nM | Ki (hCB1R [3]): 3880 ± 73.4 nM | Ki (human CB2R): 0.57 ± 0.03 nM | hCB2R selectivity (human CB2R; Ki hCB1R over Ki hCB2R): 6810 | selectivity over hCB1R (human CB2R; hCB2R over hCB1R): 6,800 fold | EC50 (mouse CB2R): 0.25 ± 0.13 nM | binding to 80 additional receptors (significant = ≥50% of probe displacement) (80 additional receptors; 10 μM, most receptors, exception Na+ channel site 2): no significant binding | interaction with 80 additional receptor targets (significant = >50% inhibition) (80 additional receptors; up to 1 μM): no significant interaction | GSH adducts (rat liver microsomes) (GSH adduct formation): did not form any adducts

Source: article PMC11320734 (ACS Pharmacology & Translational Science, 2024)
